Test results taken from paper PMC4388264, “ANS complex of St John’s wort PR-10 protein with 28 copies in the asymmetric unit: a fiendish combination of pseudosymmetry with tetartohedral twinning” (Acta Crystallographica Section D: Biological Crystallography, 2015).

Molecular target: T1, Hyp-1 (Hypericum perforatum, UniProt Q8H1L1)
T1 construct: gene HYP1.1; recombinant Hyp-1 with an N-terminal hexapeptide extension (GIDPFW–) as a cloning artifact
T1 sequence (Q8H1L1 1-159): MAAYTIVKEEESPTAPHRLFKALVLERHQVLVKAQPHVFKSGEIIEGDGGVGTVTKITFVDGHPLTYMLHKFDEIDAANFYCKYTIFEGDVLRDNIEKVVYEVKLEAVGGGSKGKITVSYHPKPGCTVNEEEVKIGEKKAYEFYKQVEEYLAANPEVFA
Assay: crystal structure at […] Å and ITC (N = […]); fluorometric titration gave Kd […]
Type: binding

In the case of O=S(=O)(O)c1cccc2cccc(Nc3ccccc3)c12 [ANS, 8-anilino-1-naphthalene sulfonate], the Kd is reported as 108 ± 3 µM.
